Legend:
[1] = test system: STAM™ mouse model of Non-alcoholic Steatohepatitis; test: STAM mouse model of NASH, Part 1: anti-NASH/fibrosis effects at week 9; type: in vivo, mice; settings: for Body weight / Liver-to-body weight ratio / Collagen Type 1 mRNA expression level (liver, quantitative RT-PCR) / MCP-1 mRNA expression level (liver, quantitative RT-PCR) / TIMP-1 mRNA expression level (liver, quantitative RT-PCR): mean ± SD; for Collagen Type 1 mRNA expression level (liver, quantitative RT-PCR) / MCP-1 mRNA expression level (liver, quantitative RT-PCR) / TIMP-1 mRNA expression level (liver, quantitative RT-PCR): Vehicle 1.00
Procedure: NASH was induced in male mice by a single injection of 200 μg streptozotocin 2 days after birth (causing impaired glucose control), followed by a high fat diet from 4 weeks of age. […] Animals were sacrificed at 9 weeks of age, and biochemical, gene expression, and histologic evaluations of the liver were conducted. […] Group 2-Cenicriviroc 20 mg/kg (CVC-low): […] [table]

[2] = test system: STAM™ mouse model of Non-alcoholic Steatohepatitis; test: STAM mouse model of NASH, Part 2: anti-HCC effects at week 18; settings: for Body weight / Liver-to-body weight ratio: mean ± SD; for mice that died (survival analysis): 6 to 18 weeks
Procedure: Group 1-Vehicle: Eighteen NASH mice were orally administered vehicle at a volume of 10 mL/kg twice daily (9:00 and 19:00) from 6 weeks of age.

[3] = test system: adults with CCR5 tropic HIV-1; test: Study 202 post-hoc APRI and FIB-4 fibrosis index scores; type: in vivo, human
Procedure: APRI and FIB-4 scores were calculated. Change in score category from baseline (BL) to Weeks 24 and 48 was assessed in patients with non-missing data. Correlations between changes from BL in APRI and FIB-4 scores, and MCP-1 (CCR2 ligand) and sCD14 (inflammatory biomarker) levels were evaluated.

[4] = Chronic (3- and 9-month) monkey toxicity studies; type: in vivo
[5] = Phase 1 CVC and pioglitazone co-administration PK and safety study; type: in vivo, healthy subjects; settings: CVC 150 mg QD and PGZ 45 mg QD
Procedure: Plasma samples were collected prior to each dose and over 24 hours at the end of each treatment period. Cmax, Cmin, tmax, and AUC0-tau were determined using non-compartmental methods. Geometric means, GMRs and CIs were calculated.

[6] = target: CCR5 (Homo sapiens, UniProt P51681); test: CCR5 antagonism in in vitro, ex vivo and clinical studies; settings: ex vivo, Studies 652-2-201 and 652-2-202
[7] = Tissue distribution in rodents; type: in vivo
Source text: Infiltration of various immune cell populations, resulting in inflammation, is a central pathogenic feature following acute- and chronic liver injury. Chronic liver inflammation leads to continuous hepatocyte injury which can lead to fibrosis, cirrhosis, ESLD, and HCC. Interactions between intra-hepatic immune cells lead to increased activation and migration of Kupffer cells and HSCs and are critical events for developing liver fibrosis. Additionally, there is increasing evidence of the role of CCR2 and CCR5 in the pathogenesis of liver fibrosis. These members of the C-C chemokine family are expressed by pro-fibrogenic cells including pro-inflammatory monocytes and macrophages, Kupffer cells, and HSCs. CCR2 signaling plays an important role in the pathogenesis of renal fibrosis through regulation of bone marrow-derived fibroblasts. CCR2- and CCR5-positive monocytes as well as CCR5-positive T lymphocytes are attracted by locally released MCP-1 and RANTES, and can contribute to chronic interstitial inflammation in the kidney. […] Disruption of the intestinal microbiota and its downstream effects on the gut-liver axis both play an important role in metabolic disorders such as obesity, non-alcoholic fatty liver disease (NAFLD) and non-alcoholic steatohepatitis (NASH).

[8] = CVC plasma exposures, healthy volunteers vs HIV-infected subjects; type: in vivo, human; settings: same dosing conditions; Studies 652-1-111, 652-1-110, 652-2-202
[9] = CVC-high 100 mg/kg/day, week 9, listed as Cenicriviroc
[10] = CVC-high 100 mg/kg/day, week 9, n = 6
[11] = CVC-low 20 mg/kg/day, week 9, listed as Cenicriviroc
[12] = CVC-low 20 mg/kg/day, week 9, n = 6
[13] = CVC-high 100 mg/kg/day, week 18
[14] = CVC-high 100 mg/kg/day, week 18, listed as Cenicriviroc
[15] = CVC-low 20 mg/kg/day, week 18, listed as Cenicriviroc

Sequence of CCR5 (P51681 whole entry): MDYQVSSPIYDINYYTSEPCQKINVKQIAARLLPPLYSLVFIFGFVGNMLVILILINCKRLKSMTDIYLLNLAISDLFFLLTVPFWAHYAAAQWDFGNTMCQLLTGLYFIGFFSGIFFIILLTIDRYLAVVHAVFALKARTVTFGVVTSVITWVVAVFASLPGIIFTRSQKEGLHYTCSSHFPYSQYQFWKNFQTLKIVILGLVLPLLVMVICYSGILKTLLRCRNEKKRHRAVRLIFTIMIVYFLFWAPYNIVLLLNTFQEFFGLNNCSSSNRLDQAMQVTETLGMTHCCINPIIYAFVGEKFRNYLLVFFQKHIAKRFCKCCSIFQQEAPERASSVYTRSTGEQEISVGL

CCCCOCCOc1ccc(-c2ccc3c(c2)/C=C(/C(=O)Nc2ccc([S@@+]([O-])Cc4cncn4CCC)cc2)CCCN3CC(C)C)cc1 [CVC, (S)-8-[4-(2-Butoxyethoxy)phenyl]-1-isobutyl-N-(4-{[(1-propyl-1H-imidazol-5-yl)methyl]sulfinyl}phenyl)-1,2,3,4-tetrahydro-1-benzazocine-5-carboxamide]
collagen type 1 mRNA in whole liver lysates, decrease (real-time RT-PCR) ([1]; CVC treatment 20 and 100 mg/kg/day, 9 weeks of age): 27-37%
Body weight ([1]; CVC-high 100 mg/kg/day, week 9): 18.7 ± 0.9 g
Liver-to-body weight ratio ([1]; CVC-high 100 mg/kg/day, week 9): 7.0±0.8%
Collagen Type 1 mRNA expression level (liver, quantitative RT-PCR) ([1]; CVC-high 100 mg/kg/day, week 9): 0.73±0.04
MCP-1 mRNA expression level (liver, quantitative RT-PCR) ([1]; CVC-high 100 mg/kg/day, week 9): 1.00±0.53
TIMP-1 mRNA expression level (liver, quantitative RT-PCR) ([1]; CVC-high 100 mg/kg/day, week 9): 0.80±0.20
Collagen Type 1 mRNA expression level (liver, quantitative RT-PCR) [1, 9]: 0.73 ± 0.04
MCP-1 mRNA expression level (liver, quantitative RT-PCR) [1, 9]: 1.00 ± 0.53
TIMP-1 mRNA expression level (liver, quantitative RT-PCR) [1, 9]: 0.80 ± 0.20
Body weight [1, 9]: 18.7 ± 0.9 g
Liver-to-body weight ratio [1, 9]: 7.0 ± 0.8%
Hepatocyte ballooning score 0 (None), number of mice [1, 10]: 1
Hepatocyte ballooning score 1 (Few balloon cells), number of mice [1, 10]: 2
Hepatocyte ballooning score 2 (Many cells/prominent ballooning), number of mice [1, 10]: 3
Lobular inflammation score 1 (<2 foci/200x), number of mice [1, 10]: 3
Lobular inflammation score 2 (2-4 foci/200x), number of mice [1, 10]: 3
Steatosis score 0 (<5%), number of mice [1, 10]: 1
Steatosis score 1 (5-33%), number of mice [1, 10]: 5
Body weight ([1]; CVC-low 20 mg/kg/day, week 9): 19.5 ± 2.0 g
Liver-to-body weight ratio ([1]; CVC-low 20 mg/kg/day, week 9): 6.9±1.0%
Collagen Type 1 mRNA expression level (liver, quantitative RT-PCR) ([1]; CVC-low 20 mg/kg/day, week 9): 0.63±0.10
TIMP-1 mRNA expression level (liver, quantitative RT-PCR) ([1]; CVC-low 20 mg/kg/day, week 9): 0.75±0.32
Collagen Type 1 mRNA expression level (liver, quantitative RT-PCR) [1, 11]: 0.63 ± 0.10
TIMP-1 mRNA expression level (liver, quantitative RT-PCR) [1, 11]: 0.75 ± 0.32
Body weight [1, 11]: 19.5 ± 2.0 g
Liver-to-body weight ratio [1, 11]: 6.9 ± 1.0%
Hepatocyte ballooning score 1 (Few balloon cells), number of mice [1, 12]: 3
Hepatocyte ballooning score 2 (Many cells/prominent ballooning), number of mice [1, 12]: 3
Lobular inflammation score 1 (<2 foci/200x), number of mice [1, 12]: 3
Lobular inflammation score 2 (2-4 foci/200x), number of mice [1, 12]: 3
Steatosis score 1 (5-33%), number of mice [1, 12]: 6
general condition throughout the treatment period ([1]; CVC-low and CVC-high, until week 9): None of the animals in the present study showed deterioration in general condition
effect on NASH-derived HCC ([2]; CVC treatment groups, week 18): not observed
Body weight [2, 13]: 20.8 ± 2.7 g
Liver-to-body weight ratio [2, 13]: 8.8±2.3%
Body weight [2, 14]: 20.8 ± 2.7 g
Liver-to-body weight ratio [2, 14]: 8.8 ± 2.3%
mice that died (survival analysis) ([2]; CVC-high group): Five out of twelve mice died
mice with GS-positive nodules ([2]; CVC-high group, week 18): seven out of seven mice
mice with HCC lesions (HE staining) ([2]; CVC-high group, week 18): six out of seven mice
Body weight ([2]; CVC-low 20 mg/kg/day, week 18): 22.9 ± 3.5 g
Liver-to-body weight ratio ([2]; CVC-low 20 mg/kg/day, week 18): 8.3±2.8%
Body weight [2, 15]: 22.9 ± 3.5 g
Liver-to-body weight ratio [2, 15]: 8.3 ± 2.8%
mice that died (survival analysis) ([2]; CVC-low group): Six out of twelve mice died
mice with GS-positive nodules ([2]; CVC-low group, week 18): five out of six mice
mice with HCC lesions (HE staining) ([2]; CVC-low group, week 18): five out of six mice
subjects with APRI 0.5-1.5 ([3]; Baseline): 14%
subjects with APRI <0.5 ([3]; Baseline): 84%
subjects with APRI >1.5 ([3]; Baseline): 2%
subjects with FIB-4 1.45-3.25 ([3]; Baseline): 17%
subjects with FIB-4 <1.45 ([3]; Baseline): 82%
subjects with FIB-4 >3.25 ([3]; Baseline): 1%
subjects with APRI 0.5-1.5 ([3]; Week 24): 7%
subjects with APRI <0.5 ([3]; Week 24): 93%
subjects with APRI decreased 1 category from baseline ([3]; Week 24): 14%
subjects with FIB-4 1.45-3.25 ([3]; Week 24): 7%
subjects with FIB-4 <1.45 ([3]; Week 24): 93%
subjects with FIB-4 decreased 1 category from baseline ([3]; Week 24): 13%
subjects with APRI 0.5-1.5 ([3]; Week 48): 8%
subjects with APRI <0.5 ([3]; Week 48): 91%
subjects with APRI >1.5 ([3]; Week 48): 1%
subjects with APRI decreased 1 category from baseline ([3]; Week 48): 10%
subjects with FIB-4 1.45-3.25 ([3]; Week 48): 5%
subjects with FIB-4 <1.45 ([3]; Week 48): 94%
subjects with FIB-4 >3.25 ([3]; Week 48): 1%
subjects with FIB-4 decreased 1 category from baseline ([3]; Week 48): 14%
subjects with improvements in APRI and FIB-4 scores over time ([3]; pooled data for CVC 100 mg and 200 mg): ≥ 10%
plasma MCP-1 levels, fold over controls ([4]; 1000 mg/kg/day, chronic (3- and 9-month) monkey toxicity studies): ~5 fold
indication of inflammation in clinical pathology parameters or any tissue incl. liver ([4]; high dose of 1000 mg/kg/day): No indication of inflammation
Cmin on co-administration [5]: remained unchanged
steady-state Cmax and AUC0-tau on co-administration [5]: modest decrease
antagonism of CCR5 [6]: potent and concentration-dependent antagonism
tissue distribution [7]: high distribution in the liver, mesenteric lymph node, and intestine
CVC plasma exposures in non-HIV infected healthy volunteers compared to HIV-infected subjects [8]: higher
